Assay results taken from the supplement of paper PMC10307832.

Tests used:
Test in all cases: relative viability (nuclei count vs DMSO), 5 days (fraction); higher = more cells survive
[1] = test system: NCI-H1793
Method in brief: (§1)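 One day after seeding in 1536-well plates, lung cancer cell lines were dosed by pin tool. Dosing was either single-drug or a fixed anchor-drug dose plus five library-drug doses (not always all listed) in √10 steps. After 5 days, nuclei were stained in one fix-and-stain step and counted on 4× images, and relative viability is the nuclei count of treated wells over that of vehicle wells, given as the median of duplicate plates.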

[2] = test system: NCI-H1792
Method in brief: as §1

[3] = test system: A-427
Method in brief: as §1

[4] = test system: SK-MES-1
Method in brief: as §1

[5] = test system: HCC-44
Method in brief: as §1

[6] = test system: NCI-H1944
Method in brief: as §1

[7] = test system: NCI-H358
Method in brief: as §1

[8] = test system: NCI-H1975
Method in brief: as §1

[9] = test system: NCI-H522
Method in brief: as §1

[10] = test system: LXF-289
Method in brief: as §1

[11] = test system: H3255
Method in brief: as §1

[12] = test system: NCI-H1915
Method in brief: as §1

[13] = test system: NCI-H1993
Method in brief: as §1

[14] = test system: LOU-NH91
Method in brief: as §1

[15] = test system: COR-L 105
Method in brief: as §1

[16] = test system: NCI-H2170
Method in brief: as §1

[17] = test system: SW 900
Method in brief: as §1

[18] = test system: NCI-H520
Method in brief: as §1

[19] = test system: HCC-827
Method in brief: as §1

[20] = test system: NCI-H2087
Method in brief: as §1

[21] = test system: NCI-H2023
Method in brief: as §1

[22] = test system: LCLC-103H
Method in brief: as §1

[23] = test system: SW 1573
Method in brief: as §1

CN1CCN(CCOc2cc(OC3CCOCC3)c3c(Nc4c(Cl)ccc5c4OCO5)ncnc3c2)CC1 [Saracatinib] + CC(=O)c1c(C)c2cnc(Nc3ccc(N4CCNCC4)cn3)nc2n(C2CCCC2)c1=O [Palbociclib] (partner 0.5 µM)
relative viability ([1]; first compound 0.02 µM): 0.363
relative viability ([1]; first compound 0.2 µM): 0.311
relative viability ([1]; first compound 0.6325 µM): 0.299
relative viability ([1]; first compound 2 µM): 0.278
relative viability ([2]; first compound 0.02 µM): 0.567
relative viability ([2]; first compound 0.2 µM): 0.439
relative viability ([2]; first compound 0.6325 µM): 0.781
relative viability ([2]; first compound 2 µM): 0.55
relative viability ([3]; first compound 0.02 µM): 0.531
relative viability ([3]; first compound 0.2 µM): 0.457
relative viability ([3]; first compound 0.6325 µM): 0.525
relative viability ([3]; first compound 2 µM): 0.506
relative viability ([4]; first compound 0.02 µM): 0.3
relative viability ([4]; first compound 0.2 µM): 0.31
relative viability ([4]; first compound 0.6325 µM): 0.309
relative viability ([4]; first compound 2 µM): 0.256
relative viability ([5]; first compound 0.02 µM): 1.01
relative viability ([5]; first compound 0.2 µM): 0.974
relative viability ([5]; first compound 0.6325 µM): 0.979
relative viability ([5]; first compound 2 µM): 0.938
relative viability ([6]; first compound 0.02 µM): 0.3
relative viability ([6]; first compound 0.2 µM): 0.281
relative viability ([6]; first compound 0.6325 µM): 0.305
relative viability ([6]; first compound 2 µM): 0.255
relative viability ([7]; first compound 0.02 µM): 0.136
relative viability ([7]; first compound 0.2 µM): 0.118
relative viability ([7]; first compound 0.6325 µM): 0.127
relative viability ([7]; first compound 2 µM): 0.0903
relative viability ([8]; first compound 0.02 µM): 0.584
relative viability ([8]; first compound 0.2 µM): 0.603
relative viability ([8]; first compound 0.6325 µM): 0.718
relative viability ([8]; first compound 2 µM): 0.441
relative viability ([9]; first compound 0.02 µM): 0.914
relative viability ([9]; first compound 0.2 µM): 0.802
relative viability ([9]; first compound 0.6325 µM): 0.911
relative viability ([9]; first compound 2 µM): 0.756
relative viability ([10]; first compound 0.02 µM): 0.621
relative viability ([10]; first compound 0.2 µM): 0.582
relative viability ([10]; first compound 0.6325 µM): 0.601
relative viability ([10]; first compound 2 µM): 0.571
relative viability ([11]; first compound 0.02 µM): 0.329
relative viability ([11]; first compound 0.2 µM): 0.31
relative viability ([11]; first compound 0.6325 µM): 0.336
relative viability ([11]; first compound 2 µM): 0.297
relative viability ([12]; first compound 0.02 µM): 0.488
relative viability ([12]; first compound 0.2 µM): 0.468
relative viability ([12]; first compound 0.6325 µM): 0.537
relative viability ([12]; first compound 2 µM): 0.462
relative viability ([13]; first compound 0.02 µM): 0.65
relative viability ([13]; first compound 0.2 µM): 0.584
relative viability ([13]; first compound 0.6325 µM): 0.701
relative viability ([13]; first compound 2 µM): 0.523
relative viability ([14]; first compound 0.02 µM): 0.487
relative viability ([14]; first compound 0.2 µM): 0.551
relative viability ([14]; first compound 0.6325 µM): 0.569
relative viability ([14]; first compound 2 µM): 0.49
relative viability ([15]; first compound 0.02 µM): 0.384
relative viability ([15]; first compound 0.2 µM): 0.332
relative viability ([15]; first compound 0.6325 µM): 0.38
relative viability ([15]; first compound 2 µM): 0.321
relative viability ([16]; first compound 0.02 µM): 0.39
relative viability ([16]; first compound 0.2 µM): 0.39
relative viability ([16]; first compound 0.6325 µM): 0.441
relative viability ([16]; first compound 2 µM): 0.354
relative viability ([17]; first compound 0.02 µM): 0.548
relative viability ([17]; first compound 0.2 µM): 0.432
relative viability ([17]; first compound 0.6325 µM): 0.383
relative viability ([17]; first compound 2 µM): 0.293
relative viability ([18]; first compound 0.02 µM): 0.249
relative viability ([18]; first compound 0.2 µM): 0.211
relative viability ([18]; first compound 0.6325 µM): 0.214
relative viability ([18]; first compound 2 µM): 0.156
relative viability ([19]; first compound 0.02 µM): 0.507
relative viability ([19]; first compound 0.2 µM): 0.314
relative viability ([19]; first compound 0.6325 µM): 0.185
relative viability ([19]; first compound 2 µM): 0.167
relative viability ([20]; first compound 0.02 µM): 0.252
relative viability ([20]; first compound 0.2 µM): 0.255
relative viability ([20]; first compound 0.6325 µM): 0.303
relative viability ([20]; first compound 2 µM): 0.179
relative viability ([21]; first compound 0.02 µM): 0.379
relative viability ([21]; first compound 0.2 µM): 0.31
relative viability ([21]; first compound 0.6325 µM): 0.282
relative viability ([21]; first compound 2 µM): 0.19
relative viability ([22]; first compound 0.02 µM): 0.498
relative viability ([22]; first compound 0.2 µM): 0.389
relative viability ([22]; first compound 0.6325 µM): 0.479
relative viability ([22]; first compound 2 µM): 0.461
relative viability ([23]; first compound 0.02 µM): 0.416
relative viability ([23]; first compound 0.2 µM): 0.399
relative viability ([23]; first compound 0.6325 µM): 0.382
relative viability ([23]; first compound 2 µM): 0.28

CN1CCN(CCOc2cc(OC3CCOCC3)c3c(Nc4c(Cl)ccc5c4OCO5)ncnc3c2)CC1 [Saracatinib] + Nc1nc2[nH]cc(CCc3ccc(C(=O)N[C@@H](CCC(=O)O)C(=O)O)cc3)c2c(=O)[nH]1 [Pemetrexed] (partner 0.2 µM)
relative viability ([1]; first compound 0.02 µM): 0.947
relative viability ([1]; first compound 0.2 µM): 0.766
relative viability ([1]; first compound 0.6325 µM): 0.743
relative viability ([1]; first compound 2 µM): 0.568
relative viability ([2]; first compound 0.02 µM): 1.06
relative viability ([2]; first compound 0.2 µM): 0.644
relative viability ([2]; first compound 0.6325 µM): 1.12
relative viability ([2]; first compound 2 µM): 0.788
relative viability ([3]; first compound 0.02 µM): 0.963
relative viability ([3]; first compound 0.2 µM): 0.787
relative viability ([3]; first compound 0.6325 µM): 0.846
relative viability ([3]; first compound 2 µM): 1.01
relative viability ([4]; first compound 0.02 µM): 0.923
relative viability ([4]; first compound 0.2 µM): 0.905
relative viability ([4]; first compound 0.6325 µM): 0.886
relative viability ([4]; first compound 2 µM): 0.466
relative viability ([5]; first compound 0.02 µM): 0.645
relative viability ([5]; first compound 0.2 µM): 0.607
relative viability ([5]; first compound 0.6325 µM): 0.618
relative viability ([5]; first compound 2 µM): 0.667
relative viability ([6]; first compound 0.02 µM): 0.533
relative viability ([6]; first compound 0.2 µM): 0.663
relative viability ([6]; first compound 0.6325 µM): 0.626
relative viability ([6]; first compound 2 µM): 0.429
relative viability ([7]; first compound 0.02 µM): 0.193
relative viability ([7]; first compound 0.2 µM): 0.166
relative viability ([7]; first compound 0.6325 µM): 0.156
relative viability ([7]; first compound 2 µM): 0.151
relative viability ([8]; first compound 0.02 µM): 0.276
relative viability ([8]; first compound 0.2 µM): 0.265
relative viability ([8]; first compound 0.6325 µM): 0.275
relative viability ([8]; first compound 2 µM): 0.253
relative viability ([9]; first compound 0.02 µM): 1.15
relative viability ([9]; first compound 0.2 µM): 0.918
relative viability ([9]; first compound 0.6325 µM): 0.735
relative viability ([9]; first compound 2 µM): 0.747
relative viability ([10]; first compound 0.02 µM): 0.875
relative viability ([10]; first compound 0.2 µM): 0.902
relative viability ([10]; first compound 0.6325 µM): 0.985
relative viability ([10]; first compound 2 µM): 1
relative viability ([11]; first compound 0.02 µM): 0.591
relative viability ([11]; first compound 0.2 µM): 0.514
relative viability ([11]; first compound 0.6325 µM): 0.521
relative viability ([11]; first compound 2 µM): 0.421
relative viability ([12]; first compound 0.02 µM): 0.477
relative viability ([12]; first compound 0.2 µM): 0.4
relative viability ([12]; first compound 0.6325 µM): 0.501
relative viability ([12]; first compound 2 µM): 0.481
relative viability ([13]; first compound 0.02 µM): 0.626
relative viability ([13]; first compound 0.2 µM): 0.519
relative viability ([13]; first compound 0.6325 µM): 0.642
relative viability ([13]; first compound 2 µM): 0.471
relative viability ([14]; first compound 0.02 µM): 0.397
relative viability ([14]; first compound 0.2 µM): 0.417
relative viability ([14]; first compound 0.6325 µM): 0.472
relative viability ([14]; first compound 2 µM): 0.457
relative viability ([15]; first compound 0.02 µM): 1.2
relative viability ([15]; first compound 0.2 µM): 1.21
relative viability ([15]; first compound 0.6325 µM): 1.26
relative viability ([15]; first compound 2 µM): 0.717
relative viability ([16]; first compound 0.02 µM): 0.25
relative viability ([16]; first compound 0.2 µM): 0.253
relative viability ([16]; first compound 0.6325 µM): 0.277
relative viability ([16]; first compound 2 µM): 0.202
relative viability ([17]; first compound 0.02 µM): 0.559
relative viability ([17]; first compound 0.2 µM): 0.361
relative viability ([17]; first compound 0.6325 µM): 0.506
relative viability ([17]; first compound 2 µM): 0.408
relative viability ([18]; first compound 0.02 µM): 0.625
relative viability ([18]; first compound 0.2 µM): 0.508
relative viability ([18]; first compound 0.6325 µM): 0.474
relative viability ([18]; first compound 2 µM): 0.337
relative viability ([19]; first compound 0.02 µM): 0.286
relative viability ([19]; first compound 0.2 µM): 0.158
relative viability ([19]; first compound 0.6325 µM): 0.189
relative viability ([19]; first compound 2 µM): 0.168
relative viability ([20]; first compound 0.02 µM): 0.63
relative viability ([20]; first compound 0.2 µM): 0.722
relative viability ([20]; first compound 0.6325 µM): 0.574
relative viability ([20]; first compound 2 µM): 0.707
relative viability ([21]; first compound 0.02 µM): 0.229
relative viability ([21]; first compound 0.2 µM): 0.189
relative viability ([21]; first compound 0.6325 µM): 0.202
relative viability ([21]; first compound 2 µM): 0.191
relative viability ([22]; first compound 0.02 µM): 0.444
relative viability ([22]; first compound 0.2 µM): 0.329
relative viability ([22]; first compound 0.6325 µM): 0.451
relative viability ([22]; first compound 2 µM): 0.48
relative viability ([23]; first compound 0.02 µM): 0.823
relative viability ([23]; first compound 0.2 µM): 0.899
relative viability ([23]; first compound 0.6325 µM): 0.794
relative viability ([23]; first compound 2 µM): 0.767
